Assays:
[1] = system: Acinetobacter baumannii; assay: Bactericidal activity against Acinetobacter baumannii incubated for overnight; type: functional
[2] = Hemolytic activity in human RBC at 100 ug/ml incubated for 1 hr; type: toxicity, cell-based, Erythrocyte; conditions: human red blood cells (erythrocytes), at 100 µg/mL, read-out: Activity
[3] = system: Staphylococcus aureus; assay: Bactericidal activity against Staphylococcus aureus incubated for overnight; type: functional

H-FDWDSVLKGVEGFVRGYF-OH showed an MBC [1] of over 100 µg/mL, a hemolysis at 1 h, 100 ug/ml [2] of 15.2% and an MBC [3] of over 100 µg/mL.

H-GKCIWKAIFKGAKKFLKKLVNP-OH showed an MBC [1] of 1.56 µg/mL, a hemolysis at 1 h, 100 ug/ml [2] of 72.4% and an MBC [3] of 50 µg/mL.

For H-FKWKSVLKGVDGFVDGYF-OH, the MBC [1] was over 100 µg/mL, the hemolysis at 1 h, 100 ug/ml [2] was 101% and the MBC [3] was over 100 µg/mL.
